According to US4808711A, “Cephalosporin derivatives” (Sankei Pharmaceutical Co., Ltd., priority 1985, dated 1989):
In brackets after ≈: the same amount, converted by molar mass. Structures can show the parent of a compound that is named as a salt.

Key:
Assay type in all cases: cell-based
[1] = tested on: E. Coli GN5482; assay: MIC, E. Coli GN5482; details: Escherichia coli
Experimental: (§1) The minimum inhibition concentrations (MIC) of the compounds obtained by the present invention were measured according to the standard method of Japanese Chemotherapy Association.

[2] = tested on: E. coli W3630/Rms213; assay: MIC, E. coli W3630/Rms213; details: Escherichia coli
Experimental: as §1

[3] = tested on: E. cloacae GN7471; assay: MIC, E. cloacae GN7471; details: Enterobacter cloacae
Experimental: as §1

[4] = tested on: E. coli W3630/Rte16; assay: MIC, E. coli W3630/Rte16; details: Escherichia coli
Experimental: as §1

[5] = tested on: C. freundii GN7391; assay: MIC, C. freundii GN7391; details: Citrobacter freundii
Experimental: as §1

[6] = tested on: E. coli W3630/Rms212; assay: MIC, E. coli W3630/Rms212; details: Escherichia coli
Experimental: as §1

[7] = tested on: S. marcescens GN10851; assay: MIC, S. marcescens GN10851; details: Serratia marcescens
Experimental: as §1

[8] = tested on: P. rettgeri GN4430; assay: MIC, P. rettgeri GN4430; details: Providencia rettgeri
Experimental: as §1

[9] = tested on: P. morganii GN5407; assay: MIC, P. morganii GN5407; details: Morganella morganii
Experimental: as §1

[10] = tested on: P. aeruginosa GN10; assay: MIC, P. aeruginosa GN10; details: Pseudomonas aeruginosa
Experimental: as §1

[11] = tested on: P. vulgaris GN7919; assay: MIC, P. vulgaris GN7919; details: Proteus vulgaris
Experimental: as §1

[12] = tested on: S. aureus 209P JC-1; assay: MIC, S. aureus 209P JC-1; details: Staphylococcus aureus; S. aureus 209P JC-1; read-out: MIC
Experimental: as §1

[13] = tested on: S. sonnei SH72-415; assay: MIC, S. sonnei SH72-415; details: Shigella sonnei, SH72415, read-out: MIC
Experimental: as §1

[14] = tested on: C. freundii IFO12681; assay: MIC, C. freundii IFO12681; details: Citrobacter freundii, read-out: MIC
Experimental: as §1

[15] = tested on: P. vulgaris ATCC6380; assay: MIC, P. vulgaris ATCC6380; details: Proteus vulgaris, read-out: MIC
Experimental: as §1

[16] = tested on: P. rettgeri ATCC14505; assay: MIC, P. rettgeri ATCC14505; details: Providencia rettgeri, read-out: MIC
Experimental: as §1

[17] = tested on: S. typhimurium ATCC13311; assay: MIC, S. typhimurium ATCC13311; details: Salmonella enterica, read-out: MIC
Experimental: as §1

[18] = tested on: S. typhi 1099-77; assay: MIC, S. typhi 1099-77; details: Salmonella enterica, TYPHI
Experimental: as §1

[19] = tested on: S. epidermidis ATCC14990; assay: MIC, S. epidermidis ATCC14990; details: Staphylococcus epidermidis, read-out: MIC
Experimental: as §1

[20] = tested on: P. maltophilia ATCC13637; assay: MIC, P. maltophilia ATCC13637; details: Stenotrophomonas maltophilia
Experimental: as §1

[21] = tested on: B. subtilis ATCC6633; assay: MIC, B. subtilis ATCC6633; details: Bacillus subtilis; B. subtilis ATCC6633; read-out: MIC
Experimental: as §1

[22] = tested on: S. paratyphi A 144-12-93; assay: MIC, S. paratyphi A 144-12-93; details: Salmonella enterica, PARATYPHI
Experimental: as §1

[23] = tested on: S. flexneri Y NCTC 9730; assay: MIC, S. flexneri Y NCTC 9730; details: Shigella flexneri, NCTC9730, read-out: MIC
Experimental: as §1

[24] = tested on: S. paratyphi C 33-76; assay: MIC, S. paratyphi C 33-76; details: Salmonella enterica, PARATYPHI
Experimental: as §1

[25] = tested on: K. pneumoniae ATCC27736; assay: MIC, K. pneumoniae ATCC27736; details: Klebsiella pneumoniae, read-out: MIC
Experimental: as §1

[26] = tested on: S. aureus TASAKI; assay: MIC, S. aureus TASAKI; details: Staphylococcus aureus; S. aureus TASAKI; standard method of Japanese Chemotherapy Association; read-out: MIC
Experimental: as §1

[27] = tested on: S. aureus Smith; assay: MIC, S. aureus Smith; details: Staphylococcus aureus, read-out: MIC
Experimental: as §1

[28] = tested on: S. aureus ATCC25923; assay: MIC, S. aureus ATCC25923; details: Staphylococcus aureus; S. aureus ATCC25923; read-out: MIC
Experimental: as §1

[29] = tested on: S. paratyphi B; assay: MIC, S. paratyphi B; details: Salmonella enterica, PARATYPHI
Experimental: as §1

[30] = tested on: E. coli NIHJ JC-2; assay: MIC, E. coli NIHJ JC-2; details: Escherichia coli, NIHJJC2, read-out: MIC
Experimental: as §1

[31] = tested on: P. cepacia ATCC25416; assay: MIC, P. cepacia ATCC25416; details: Burkholderia cepacia, read-out: MIC
Experimental: as §1

[32] = tested on: S. faecalis IFO3826; assay: MIC, S. faecalis IFO3826; details: Enterococcus faecalis, read-out: MIC
Experimental: as §1

[33] = tested on: E. cloacae ATCC13047; assay: MIC, E. cloacae ATCC13047; details: Enterobacter cloacae
Experimental: as §1

[34] = tested on: P. mirabilis IFO3849; assay: MIC, P. mirabilis IFO3849; details: Proteus mirabilis, read-out: MIC
Experimental: as §1

[35] = tested on: S. newport 563; assay: MIC, S. newport 563; details: Salmonella enterica, read-out: MIC
Experimental: as §1

[36] = tested on: S. marcescens IFO12648; assay: MIC, S. marcescens IFO12648; details: Serratia marcescens, read-out: MIC
Experimental: as §1

[37] = tested on: S. anatum 677-69; assay: MIC, S. anatum 677-69; details: Salmonella enterica, 67769, read-out: MIC
Experimental: as §1

[38] = tested on: P. aeruginosa ATCC9721; assay: MIC, P. aeruginosa ATCC9721; details: Pseudomonas aeruginosa; P. aeruginosa ATCC9721; read-out: MIC
Experimental: as §1

[39] = tested on: E. coli ATCC25922; assay: MIC, E. coli ATCC25922; details: Escherichia coli, read-out: MIC
Experimental: as §1

[40] = tested on: P. fluorescens ATCC13525; assay: MIC, P. fluorescens ATCC13525; details: Pseudomonas fluorescens, read-out: MIC
Experimental: as §1

[41] = tested on: S. dysenteriae 4379-60; assay: MIC, S. dysenteriae 4379-60; details: Shigella dysenteriae, 437960
Experimental: as §1

[42] = tested on: P. vulgaris ATCC6398; assay: MIC, P. vulgaris ATCC6398; details: Proteus vulgaris, read-out: MIC
Experimental: as §1

[43] = tested on: S. flexneri 2a CDC 4807-62; assay: MIC, S. flexneri 2a CDC 4807-62; details: Shigella flexneri, read-out: MIC
Experimental: as §1

[44] = tested on: S. boyadii CDC 2064-59; assay: MIC, S. boyadii CDC 2064-59
Experimental: as §1

[45] = tested on: P. putida ATCC12633; assay: MIC, P. putida ATCC12633; details: Pseudomonas putida
Experimental: as §1

[46] = tested on: S. typhimurium IFO 12529; assay: MIC, S. typhimurium IFO 12529; details: Salmonella enterica, read-out: MIC
Experimental: as §1

Compound CC(=NNC(=O)NC(C(=O)NC1C(=O)N2C(C(=O)O)=C(CSc3nncs3)CSC12)c1csc(N)n1)c1cccc(O)c1 (stereo not drawn) [Example 104] has an MIC [1] of 0.78 µg/mL (≈ 1.18 µM), an MIC [2] of 0.1 µg/mL (≈ 0.151 µM) and an MIC [3] of 3.13 µg/mL (≈ 4.73 µM). The MIC [4] was 0.2 µg/mL (≈ 0.302 µM), the MIC [5] was 100 µg/mL (≈ 151 µM) and the MIC [6] was 0.39 µg/mL (≈ 0.589 µM). For the same compound, the MIC [7] was 100 µg/mL (≈ 151 µM), the MIC [8] was 0.2 µg/mL (≈ 0.302 µM) and the MIC [9] was 0.39 µg/mL (≈ 0.589 µM). It also gave an MIC [10] of 6.25 µg/mL (≈ 9.44 µM) and an MIC [11] of 50 µg/mL (≈ 75.6 µM).
CC(=O)Oc1cc(OC(C)=O)cc(C(=O)NNC(=O)NC(C(=O)NC2C(=O)N3C(C(=O)O)=C(CSc4nncs4)CSC23)c2csc(N)n2)c1 (stereo not drawn) [Example 118] was tested, and the MIC [1] was 1.56 µg/mL (≈ 2.04 µM), the MIC [2] was 0.2 µg/mL (≈ 0.262 µM) and the MIC [3] was 6.25 µg/mL (≈ 8.18 µM). The MIC [4] was 0.39 µg/mL (≈ 0.511 µM), the MIC [5] was greater than 100 µg/mL and the MIC [6] was 0.39 µg/mL (≈ 0.511 µM). It also gave an MIC [7] of 100 µg/mL (≈ 131 µM), an MIC [8] of 0.39 µg/mL (≈ 0.511 µM) and an MIC [9] of 0.78 µg/mL (≈ 1.02 µM). The MIC [10] was 6.25 µg/mL (≈ 8.18 µM) and the MIC [11] was 100 µg/mL (≈ 131 µM).
Work on Cn1nnnc1SCC1=C(C(=O)O)N2C(=O)C(NC(=O)C(=NOCC(=O)NN=Cc3ccc(O)c(O)c3)c3csc(N)n3)C2SC1 (stereo not drawn) [Example 2, 7-{2-[2-amino-1,3-thiazol-4-yl]-2-[3-(3,4-dihydroxybenzylidene)carbazoyl]methoxyiminoacetamido}-3-[(1-methyl-1,2,3,4-tetrazol-5-yl)thiomethyl]-3-cephem-4-carboxylic acid.hydrochloride] yielded an MIC [12] of 0.78 µg/mL, an MIC [13] of 0.05 µg/mL and an MIC [14] of 0.39 µg/mL. It also gave an MIC [15] of 0.2 µg/mL, an MIC [16] of 0.39 µg/mL and an MIC [17] of 0.05 µg/mL. The MIC [18] was no more than 6 ng/mL, the MIC [19] was 0.78 µg/mL and the MIC [20] was 1.56 µg/mL. For the same compound, the MIC [21] was 0.39 µg/mL, the MIC [22] was 0.05 µg/mL and the MIC [23] was 0.78 µg/mL. It also gave an MIC [24] of 0.012 µg/mL, an MIC [25] of 0.025 µg/mL and an MIC [26] of 1.56 µg/mL. For the same compound, the MIC [27] was 3.13 µg/mL, the MIC [28] was 0.78 µg/mL and the MIC [29] was 0.025 µg/mL. The MIC [30] was 0.39 µg/mL, the MIC [31] was 0.78 µg/mL and the MIC [32] was greater than 100 µg/mL. The MIC [33] was 3.13 µg/mL, the MIC [34] was 0.2 µg/mL and the MIC [35] was 0.05 µg/mL. It also gave an MIC [36] of 0.39 µg/mL, an MIC [37] of 0.05 µg/mL and an MIC [38] of 0.2 µg/mL. The MIC [39] was 0.2 µg/mL, the MIC [40] was 12.5 µg/mL and the MIC [41] was 0.025 µg/mL. The MIC [42] was 0.05 µg/mL, the MIC [43] was 0.1 µg/mL and the MIC [44] was 0.78 µg/mL. For the same compound, the MIC [45] was 1.56 µg/mL and the MIC [46] was 0.39 µg/mL.
